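Step 1: Grow cells in 96-well plates. Step 2: Expose to compound for 48 hours at 5 concentrations. Step 3: Interpolate endpoints linearly; if unreached, use highest concentration. Abbreviation: GI50, concentration required for 50% inhibition of growth.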 Calls of active or inactive are those of the source. No stated cut-off is given here; in the data, active = GI50 up to about 1.1 µM and inactive = higher.
Experiments:
Assay in all cases: growth of human tumour cells (NCI), 48 h
SF-268 = system: SF-268
UACC-62 = system: UACC-62
CCRF-CEM = system: CCRF-CEM
MDA-N = system: MDA-N
SK-MEL-5 = system: SK-MEL-5
SK-MEL-28 = system: SK-MEL-28
ACHN = system: ACHN
COLO 205 = system: COLO 205
HL-60 = system: HL-60
OVCAR-4 = system: OVCAR-4
RXF 393 = system: RXF 393
M14 = system: M14
MOLT-4 = system: MOLT-4
MDA-MB-231 = system: MDA-MB-231
T47D = system: T47D
KM12 = system: KM12
786-0 = system: 786-0
DU-145 = system: DU-145
A498 = system: A498
MCF7 = system: MCF7
UO-31 = system: UO-31
EKVX = system: EKVX
A549 = system: A549
SK-MEL-2 = system: SK-MEL-2
SR = system: SR
U-251 = system: U-251
LOX IMVI = system: LOX IMVI
CAKI-1 = system: CAKI-1
SF-539 = system: SF-539
NCI-H460 = system: NCI-H460
K562 = system: K562
TK-10 = system: TK-10
HOP-92 = system: HOP-92
SNB-19 = system: SNB-19
Malme-3M = system: Malme-3M
MDA-MB-435 = system: MDA-MB-435
BT-549 = system: BT-549
SNB-75 = system: SNB-75
IGROV-1 = system: IGROV-1
SW-620 = system: SW-620
HT-29 = system: HT-29
HCT-116 = system: HCT-116
RPMI-8226 = system: RPMI-8226
NCI-H522 = system: NCI-H522
OVCAR-8 = system: OVCAR-8
Hs-578T = system: Hs-578T
NCI-H23 = system: NCI-H23
NCI-H226 = system: NCI-H226
PC-3 = system: PC-3
SN12C = system: SN12C
OVCAR-5 = system: OVCAR-5
UACC-257 = system: UACC-257
HCC 2998 = system: HCC 2998
NCI/ADR-RES = system: NCI/ADR-RES
HCT-15 = system: HCT-15
SF-295 = system: SF-295
SK-OV-3 = system: SK-OV-3
HOP-62 = system: HOP-62
OVCAR-3 = system: OVCAR-3

Measured: GI50

O=C1CSC2(CC(/C=C/c3cccc([N+](=O)[O-])c3)=NN2c2cccc(S(=O)(=O)O)c2)N1c1nc2ccccc2s1 (centres undefined)
inactive: SF-268 26 µM | UACC-62 19.1 µM | CCRF-CEM 20.7 µM | MDA-N 25.1 µM | SK-MEL-5 28.1 µM | SK-MEL-28 57 µM | ACHN 25.8 µM | COLO 205 50.8 µM | HL-60 28.1 µM | OVCAR-4 25.2 µM | RXF 393 34.2 µM | M14 30.7 µM | MOLT-4 22.4 µM | MDA-MB-231 19.1 µM | T47D 24.6 µM | KM12 22 µM | 786-0 18 µM | DU-145 19.6 µM | A498 20.4 µM | MCF7 17.6 µM | UO-31 19.6 µM | EKVX 44.8 µM | A549 25.8 µM | SK-MEL-2 22.9 µM | SR 19.6 µM | U-251 17.6 µM | LOX IMVI 13.6 µM | CAKI-1 49.7 µM | SF-539 29.6 µM | NCI-H460 21.2 µM | K562 28.6 µM | TK-10 20 µM | HOP-92 9.46 µM | SNB-19 21 µM | Malme-3M 51.3 µM | MDA-MB-435 18.5 µM | BT-549 16.3 µM | SNB-75 20 µM | IGROV-1 13.9 µM | SW-620 26.8 µM | HT-29 31.4 µM | HCT-116 32.6 µM | RPMI-8226 17.4 µM | NCI-H522 18.3 µM | OVCAR-8 13.8 µM | Hs-578T 55.3 µM | NCI-H23 16.7 µM | NCI-H226 25.4 µM | PC-3 21.4 µM | SN12C 22.4 µM | OVCAR-5 23.4 µM | UACC-257 38.9 µM | HCC 2998 35.6 µM | NCI/ADR-RES 22.5 µM
18.1 µM: HCT-15

CC(=O)n1nc(-c2[nH]c(C)c(-c3nn(C(C)=O)c(=S)o3)c2C)oc1=S
> 100 µM: HCT-15
inactive: SF-268 > 100 µM | UACC-62 > 100 µM | CCRF-CEM 12.9 µM | MDA-N > 100 µM | SK-MEL-5 > 100 µM | SK-MEL-28 > 100 µM | ACHN > 100 µM | COLO 205 > 100 µM | OVCAR-4 > 100 µM | RXF 393 > 100 µM | SF-295 > 100 µM | M14 > 100 µM | MOLT-4 6.89 µM | MDA-MB-231 > 100 µM | SK-OV-3 > 100 µM | T47D > 100 µM | HOP-62 > 100 µM | KM12 > 100 µM | 786-0 97.7 µM | DU-145 > 100 µM | A498 > 100 µM | MCF7 > 100 µM | OVCAR-3 > 100 µM | UO-31 > 100 µM | EKVX > 100 µM | A549 > 100 µM | SK-MEL-2 > 62.4 µM | SR 41 µM | U-251 > 100 µM | LOX IMVI 82.8 µM | CAKI-1 > 100 µM | SF-539 81.7 µM | NCI-H460 > 100 µM | K562 > 100 µM | TK-10 > 100 µM | HOP-92 > 100 µM | SNB-19 > 100 µM | Malme-3M 30.1 µM | MDA-MB-435 > 100 µM | BT-549 > 100 µM | SNB-75 > 32.3 µM | IGROV-1 > 100 µM | SW-620 > 100 µM | HT-29 > 100 µM | HCT-116 > 100 µM | RPMI-8226 > 56.6 µM | NCI-H522 > 85.7 µM | OVCAR-8 > 100 µM | Hs-578T > 100 µM | NCI-H23 > 100 µM | NCI-H226 > 54 µM | PC-3 > 100 µM | SN12C > 100 µM | OVCAR-5 > 100 µM | UACC-257 > 100 µM | HCC 2998 > 100 µM | NCI/ADR-RES > 100 µM

O=C(O)C1C2C=CC(O2)C1C(=O)Nc1ccccc1 (centres undefined)
> 100 µM: HCT-15
inactive: SF-268 > 100 µM | UACC-62 > 100 µM | CCRF-CEM > 100 µM | MDA-N > 100 µM | SK-MEL-5 > 100 µM | SK-MEL-28 > 100 µM | ACHN > 100 µM | COLO 205 > 100 µM | OVCAR-4 > 100 µM | RXF 393 > 100 µM | SF-295 > 100 µM | M14 > 100 µM | MOLT-4 > 100 µM | MDA-MB-231 > 100 µM | SK-OV-3 > 100 µM | T47D > 100 µM | HOP-62 > 100 µM | KM12 > 100 µM | 786-0 > 100 µM | DU-145 > 100 µM | A498 > 100 µM | MCF7 > 100 µM | OVCAR-3 > 100 µM | UO-31 > 100 µM | EKVX > 100 µM | A549 > 100 µM | SK-MEL-2 > 100 µM | SR > 100 µM | U-251 > 100 µM | LOX IMVI > 100 µM | CAKI-1 > 100 µM | K562 > 100 µM | TK-10 > 100 µM | SNB-19 > 100 µM | Malme-3M > 100 µM | MDA-MB-435 > 100 µM | BT-549 > 100 µM | SNB-75 > 100 µM | IGROV-1 > 100 µM | SW-620 > 100 µM | HT-29 > 100 µM | HCT-116 > 100 µM | RPMI-8226 > 100 µM | NCI-H522 > 100 µM | OVCAR-8 > 100 µM | Hs-578T > 100 µM | NCI-H23 > 100 µM | NCI-H226 > 100 µM | PC-3 > 100 µM | SN12C > 100 µM | OVCAR-5 > 100 µM | UACC-257 > 100 µM | NCI/ADR-RES > 100 µM

O=S1(=O)C(c2ccccc2)C(N2CCCCC2)C1C1CC2c3ccccc3C1c1ccccc12 (centres undefined)
inactive: SF-268 > 100 µM | UACC-62 > 100 µM | CCRF-CEM 2.45 µM | MDA-N > 100 µM | SK-MEL-5 45.1 µM | ACHN > 100 µM | COLO 205 14.8 µM | HL-60 2.86 µM | OVCAR-4 7.98 µM | RXF 393 > 100 µM | SF-295 > 100 µM | M14 > 100 µM | MOLT-4 5.47 µM | MDA-MB-231 > 100 µM | SK-OV-3 > 100 µM | T47D 10.4 µM | HOP-62 > 100 µM | KM12 23.3 µM | 786-0 > 100 µM | DU-145 > 100 µM | A498 > 100 µM | MCF7 30.8 µM | OVCAR-3 17.6 µM | UO-31 > 54.7 µM | EKVX > 100 µM | A549 8.17 µM | SK-MEL-2 > 100 µM | SR 5.93 µM | U-251 > 85.1 µM | LOX IMVI > 100 µM | CAKI-1 > 100 µM | SF-539 > 100 µM | NCI-H460 17.6 µM | K562 5.56 µM | TK-10 > 100 µM | HOP-92 8.81 µM | SNB-19 > 100 µM | Malme-3M > 100 µM | MDA-MB-435 > 30.7 µM | BT-549 > 100 µM | SNB-75 > 100 µM | IGROV-1 > 94 µM | SW-620 > 28.4 µM | HT-29 10.6 µM | HCT-116 5.69 µM | RPMI-8226 4.5 µM | NCI-H522 9.95 µM | OVCAR-8 > 100 µM | Hs-578T > 100 µM | NCI-H23 > 100 µM | NCI-H226 > 100 µM | PC-3 > 30 µM | SN12C > 35.8 µM | OVCAR-5 > 100 µM | UACC-257 > 92.7 µM | NCI/ADR-RES > 28 µM
> 48.5 µM: HCT-15

Source: ChEMBL document CHEMBL1201862, “PubChem BioAssay data set” (2004)
